Test results: patent US8952024B2, “Herbicidal pyrimidone derivatives” (E I du Pont de Nemours and Company, priority 2009, dated 2015)

Tests used:
Test in all cases: Test D pre-/postemergence plant response
Assay type in all cases: in vivo
[1] = system: Italian ryegrass (Lolium multiflorum)
How it was run: (§1)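 Visual 0–100 scoring (100 = complete control) versus untreated controls after 14–21 greenhouse days. Compounds, formulated in surfactant-containing non-phytotoxic solvent, were applied preemergence to seeded loam/sand and postemergence to 2–18 cm plants (1–4 leaves).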

[2] = system: sowthistle (common sowthistle, Sonchus oleraceous)
How it was run: as §1

[3] = system: johnsongrass (Sorghum halepense)
How it was run: as §1

[4] = system: itchgrass (Rottboellia cochinchinensis)
How it was run: as §1

[5] = system: guineagrass (Panicum maximum)
How it was run: as §1

[6] = system: sandbur (southern sandbur, Cenchrus echinatus)
How it was run: as §1

[7] = system: dallisgrass (Paspalum dilatatum)
How it was run: as §1

[8] = system: field bindweed (Convolvulus arvensis)
How it was run: as §1

[9] = system: chickweed (common chickweed, Stellaria media); details: Postemergence
How it was run: as §1

[10] = system: quackgrass (Elytrigia repens)
How it was run: as §1

[11] = system: groundsel (common groundsel, Senecio vulgaris); details: Postemergence
How it was run: as §1

[12] = system: purslane (common purslane, Portulaca oleracea)
How it was run: as §1

[13] = system: ragweed (common ragweed, Ambrosia elatior)
How it was run: as §1

[14] = system: dayflower (Virginia (VA) dayflower, Commelina virginica)
How it was run: as §1

[15] = system: black mustard (Brassica nigra)
How it was run: as §1

[16] = system: green foxtail (Setaria viridis)
How it was run: as §1

[17] = system: mallow (common mallow, Malva sylvestris)
How it was run: as §1

[18] = system: prickly sida (Sida spinosa)
How it was run: as §1

[19] = system: barnyardgrass (Echinochloa crus-galli)
How it was run: as §1

[20] = Postemergence, 31 g ai/ha, scale 0 to 100
[21] = Postemergence, 62 g ai/ha, scale 0 to 100 (0 no effect, 100 complete control)
[22] = Postemergence, 125 g ai/ha, scale 0 to 100 (0 no effect, 100 complete control)
[23] = Postemergence, 16 g ai/ha, scale 0 to 100
[24] = Preemergence, 16 g ai/ha, scale 0 to 100, 0 no effect, 100 complete control
[25] = Preemergence, 31 g ai/ha, scale 0 to 100 (0 no effect, 100 complete control)
[26] = Preemergence, 125 g ai/ha, scale 0 to 100
[27] = Preemergence, 62 g ai/ha, scale 0 to 100
[28] = 62 g ai/ha, scale 0 to 100 (0 no effect, 100 complete control)
[29] = 125 g ai/ha, scale 0 to 100 (0 no effect, 100 complete control)
[30] = Postemergence, 31 g ai/ha, scale 0 to 100 (0 no effect, 100 complete control)

O=C1CCCC(O)=C1C(=O)c1cnc(-c2ccccc2)n(CC2CCCO2)c1=O (stereo not shown) [Compound 59]
Plant response rating, Ryegrass, Italian [1, 20]: 0
Plant response rating, Ryegrass, Italian [1, 21]: 5
Plant response rating, Ryegrass, Italian [1, 22]: 5
Plant response rating, Ryegrass, Italian [1, 23]: 0
Plant response rating, Ryegrass, Italian [1, 24]: 0
Plant response rating, Ryegrass, Italian [1, 25]: 0
Plant response rating, Ryegrass, Italian [1, 26]: 20
Plant response rating, Sowthistle [2, 20]: 100
Plant response rating, Sowthistle [2, 21]: 100
Plant response rating, Sowthistle [2, 22]: 100
Plant response rating, Sowthistle [2, 23]: 70
Plant response rating, Sowthistle [2, 24]: 0
Plant response rating, Sowthistle [2, 25]: 95
Plant response rating, Sowthistle [2, 26]: 100
Plant response rating, Johnsongrass [3, 20]: 35
Plant response rating, Johnsongrass [3, 21]: 40
Plant response rating, Johnsongrass [3, 22]: 60
Plant response rating, Johnsongrass [3, 23]: 30
Plant response rating, Johnsongrass [3, 24]: 0
Plant response rating, Johnsongrass [3, 25]: 0
Plant response rating, Johnsongrass [3, 27]: 10
Plant response rating, Johnsongrass [3, 26]: 35
Plant response rating, Itchgrass [4, 20]: 15
Plant response rating, Itchgrass [4, 21]: 15
Plant response rating, Itchgrass [4, 22]: 75
Plant response rating, Itchgrass [4, 23]: 0
Plant response rating, Itchgrass [4, 24]: 0
Plant response rating, Itchgrass [4, 25]: 0
Plant response rating, Itchgrass [4, 27]: 0
Plant response rating, Itchgrass [4, 26]: 20
Plant response rating, Guineagrass [5, 20]: 10
Plant response rating, Guineagrass [5, 21]: 20
Plant response rating, Guineagrass [5, 22]: 20
Plant response rating, Guineagrass [5, 23]: 10
Plant response rating, Guineagrass [5, 24]: 0
Plant response rating, Guineagrass [5, 25]: 0
Plant response rating, Guineagrass [5, 27]: 0
Plant response rating, Guineagrass [5, 26]: 0
Plant response rating, Sandbur [6, 20]: 5
Plant response rating, Sandbur [6, 21]: 5
Plant response rating, Sandbur [6, 22]: 25
Plant response rating, Sandbur [6, 23]: 5
Plant response rating, Sandbur [6, 24]: 0
Plant response rating, Sandbur [6, 25]: 0
Plant response rating, Sandbur [6, 26]: 0
Plant response rating, Dallisgrass [7, 20]: 10
Plant response rating, Dallisgrass [7, 21]: 20
Plant response rating, Dallisgrass [7, 22]: 50
Plant response rating, Dallisgrass [7, 23]: 10
Plant response rating, Dallisgrass [7, 24]: 0
Plant response rating, Dallisgrass [7, 25]: 0
Plant response rating, Dallisgrass [7, 27]: 65
Plant response rating, Dallisgrass [7, 26]: 75
Plant response rating, Field Bindweed [8, 20]: 5
Plant response rating, Field Bindweed [8, 21]: 30
Plant response rating, Field Bindweed [8, 22]: 60
Plant response rating, Field Bindweed [8, 23]: 5
Plant response rating, Field Bindweed [8, 24]: 0
Plant response rating, Field Bindweed [8, 25]: 0
Plant response rating, Field Bindweed [8, 27]: 20
Plant response rating, Field Bindweed [8, 26]: 60
Plant response rating, Chickweed ([9]; 31 g ai/ha, scale 0 to 100): 70
Plant response rating, Chickweed [9, 28]: 70
Plant response rating, Quackgrass [10, 20]: 0
Plant response rating, Quackgrass [10, 21]: 0
Plant response rating, Quackgrass [10, 22]: 0
Plant response rating, Quackgrass [10, 23]: 0
Plant response rating, Quackgrass [10, 24]: 0
Plant response rating, Quackgrass [10, 25]: 0
Plant response rating, Quackgrass [10, 26]: 0
Plant response rating, Groundsel ([11]; 31 g ai/ha, scale 0 to 100): 90
Plant response rating, Groundsel [11, 28]: 100
Plant response rating, Groundsel [11, 29]: 100
Plant response rating, Groundsel ([11]; 16 g ai/ha, scale 0 to 100): 70
Plant response rating, Purslane [12, 20]: 35
Plant response rating, Purslane [12, 21]: 35
Plant response rating, Purslane [12, 22]: 50
Plant response rating, Purslane [12, 23]: 35
Plant response rating, Purslane [12, 24]: 65
Plant response rating, Purslane [12, 25]: 100
Plant response rating, Purslane [12, 27]: 100
Plant response rating, Purslane [12, 26]: 100
Plant response rating, Ragweed [13, 20]: 70
Plant response rating, Ragweed [13, 22]: 80
Plant response rating, Ragweed [13, 23]: 70
Plant response rating, Ragweed [13, 24]: 0
Plant response rating, Ragweed [13, 25]: 50
Plant response rating, Ragweed [13, 26]: 100
Plant response rating, Dayflower, VA [14, 21]: 60
Plant response rating, Dayflower, VA [14, 23]: 25
Plant response rating, Dayflower, VA [14, 25]: 0
Plant response rating, Dayflower, VA [14, 27]: 35
Plant response rating, Dayflower, VA [14, 26]: 35
Plant response rating, Black Mustard [15, 30]: 40
Plant response rating, Black Mustard [15, 21]: 65
Plant response rating, Black Mustard [15, 22]: 98
Plant response rating, Black Mustard [15, 23]: 10
Plant response rating, Black Mustard [15, 24]: 20
Plant response rating, Black Mustard [15, 25]: 40
Plant response rating, Black Mustard [15, 27]: 60
Plant response rating, Black Mustard [15, 26]: 100
Plant response rating, Foxtail, Green [16, 20]: 5
Plant response rating, Foxtail, Green [16, 21]: 20
Plant response rating, Foxtail, Green [16, 22]: 35
Plant response rating, Foxtail, Green [16, 23]: 0
Plant response rating, Foxtail, Green [16, 24]: 0
Plant response rating, Foxtail, Green [16, 25]: 0
Plant response rating, Foxtail, Green [16, 27]: 0
Plant response rating, Foxtail, Green [16, 26]: 0
Plant response rating, Mallow [17, 20]: 5
Plant response rating, Mallow [17, 21]: 5
Plant response rating, Mallow [17, 22]: 40
Plant response rating, Mallow [17, 23]: 0
Plant response rating, Mallow [17, 24]: 0
Plant response rating, Mallow [17, 25]: 65
Plant response rating, Mallow [17, 27]: 65
Plant response rating, Mallow [17, 26]: 65
Plant response rating, Prickly Sida [18, 20]: 40
Plant response rating, Prickly Sida [18, 21]: 70
Plant response rating, Prickly Sida [18, 22]: 70
Plant response rating, Prickly Sida [18, 23]: 40
Plant response rating, Prickly Sida [18, 24]: 0
Plant response rating, Prickly Sida [18, 25]: 0
Plant response rating, Prickly Sida [18, 27]: 5
Plant response rating, Prickly Sida [18, 26]: 65
Plant response rating, Barnyardgrass [19, 30]: 60
Plant response rating, Barnyardgrass [19, 21]: 60
Plant response rating, Barnyardgrass [19, 22]: 75
Plant response rating, Barnyardgrass [19, 23]: 40
Plant response rating, Barnyardgrass [19, 24]: 0
Plant response rating, Barnyardgrass [19, 25]: 0
Plant response rating, Barnyardgrass [19, 27]: 0
Plant response rating, Barnyardgrass [19, 26]: 10

COCCn1c(-c2ccsc2)ncc(C(=O)C2=C(O)C3CCC(C3)C2=O)c1=O (stereo not shown) [Compound 228]
Plant response rating, Ryegrass, Italian [1, 22]: 5
Plant response rating, Sowthistle [2, 22]: 98
Plant response rating, Johnsongrass [3, 22]: 70
Plant response rating, Itchgrass [4, 22]: 65
Plant response rating, Guineagrass [5, 22]: 15
Plant response rating, Sandbur [6, 22]: 5
Plant response rating, Dallisgrass [7, 22]: 5
Plant response rating, Field Bindweed [8, 22]: 70
Plant response rating, Chickweed [9, 29]: 75
Plant response rating, Quackgrass [10, 22]: 5
Plant response rating, Groundsel [11, 29]: 100
Plant response rating, Purslane [12, 22]: 35
Plant response rating, Ragweed [13, 22]: 75
Plant response rating, Dayflower, VA [14, 22]: 85
Plant response rating, Black Mustard [15, 30]: 20
Plant response rating, Black Mustard [15, 22]: 50
Plant response rating, Foxtail, Green [16, 22]: 80
Plant response rating, Mallow [17, 22]: 65
Plant response rating, Prickly Sida [18, 22]: 65
Plant response rating, Barnyardgrass [19, 30]: 20
Plant response rating, Barnyardgrass [19, 22]: 80
